Source: the supplement of paper PMC10307832

Assays:
Test in all cases: relative viability (nuclei count vs DMSO), 5 days (fraction); higher = more cells survive
Seliciclib + Phenformin = compound: CC[C@H](CO)Nc1nc(NCc2ccccc2)c2ncn(C(C)C)c2n1 [Seliciclib] + N=C(N)NC(=N)NCCc1ccccc1 [Phenformin] (partner 250 µM)
In short: (§1)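 Five library-drug doses in √10 steps were combined with a fixed anchor-drug dose, or a single drug was given alone, by pin tool to lung cancer cell lines in 1536-well plates the day after seeding. Nuclei were stained and counted after 5 days. Relative viability is the nuclei count in treated wells over that in vehicle wells, taken as the median of duplicate plates.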

Seliciclib + Lapatinib = compound: CC[C@H](CO)Nc1nc(NCc2ccccc2)c2ncn(C(C)C)c2n1 [Seliciclib] + CS(=O)(=O)CCNCc1ccc(-c2ccc3ncnc(Nc4ccc(OCc5cccc(F)c5)c(Cl)c4)c3c2)o1 [Lapatinib] (partner 2 µM)
In short: as §1

Seliciclib + Olaparib = compound: CC[C@H](CO)Nc1nc(NCc2ccccc2)c2ncn(C(C)C)c2n1 [Seliciclib] + O=C(c1cc(Cc2n[nH]c(=O)c3ccccc23)ccc1F)N1CCN(C(=O)C2CC2)CC1 [Olaparib] (partner 8 µM)
In short: as §1

Seliciclib + Trametinib = compound: CC[C@H](CO)Nc1nc(NCc2ccccc2)c2ncn(C(C)C)c2n1 [Seliciclib] + CC(=O)Nc1cccc(-n2c(=O)n(C3CC3)c(=O)c3c(Nc4ccc(I)cc4F)n(C)c(=O)c(C)c32)c1 [Trametinib] (partner 0.02 µM)
In short: as §1

| Cell Line | relative viability (Seliciclib + Phenformin; first compound 0.08 µM) | relative viability (Seliciclib + Phenformin; first compound 0.253 µM) | relative viability (Seliciclib + Phenformin; first compound 0.8 µM) | relative viability (Seliciclib + Phenformin; first compound 2.53 µM) | relative viability (Seliciclib + Phenformin; first compound 8 µM) | relative viability (Seliciclib + Lapatinib; first compound 0.08 µM) | relative viability (Seliciclib + Lapatinib; first compound 0.253 µM) | relative viability (Seliciclib + Lapatinib; first compound 0.8 µM) | relative viability (Seliciclib + Lapatinib; first compound 2.53 µM) | relative viability (Seliciclib + Lapatinib; first compound 8 µM) | relative viability (Seliciclib + Olaparib; first compound 0.08 µM) | relative viability (Seliciclib + Olaparib; first compound 0.253 µM) | relative viability (Seliciclib + Olaparib; first compound 0.8 µM) | relative viability (Seliciclib + Olaparib; first compound 2.53 µM) | relative viability (Seliciclib + Olaparib; first compound 8 µM) | relative viability (Seliciclib + Trametinib; first compound 0.08 µM) | relative viability (Seliciclib + Trametinib; first compound 0.253 µM) | relative viability (Seliciclib + Trametinib; first compound 0.8 µM) | relative viability (Seliciclib + Trametinib; first compound 2.53 µM) | relative viability (Seliciclib + Trametinib; first compound 8 µM) |
| --- | --- | --- | --- | --- | --- | --- | --- | --- | --- | --- | --- | --- | --- | --- | --- | --- | --- | --- | --- | --- |
| HARA | 0.424 | 0.423 | 0.469 | 0.47 | 0.393 | 0.798 | 0.614 | 0.781 | 0.374 | 0.701 | 1.05 | 0.66 | 0.784 | 0.909 | 0.924 | 0.675 | 0.719 | 0.565 | 0.828 | 0.44 |
| NCI-H2126 | 0.518 | 0.489 | 0.518 | 0.359 | 0.467 | 0.698 | 0.656 | 0.737 | 0.552 | 0.613 | 0.886 | 0.953 | 0.888 | 0.908 | 0.745 | 0.581 | 0.54 | 0.623 | 0.525 | 0.449 |
| LXF-289 | 0.52 | 0.505 | 0.501 | 0.507 | 0.496 | 0.908 | 1.04 | 0.806 | 0.891 | 0.791 | 1.06 | 1.12 | 1.03 | 1.04 | 0.772 | 0.65 | 0.725 | 0.646 | 0.661 | 0.627 |
| NCI-H460 | 0.55 | 0.526 | 0.515 | 0.567 | 0.469 | 0.895 | 1.04 | 0.922 | 1.34 | 0.826 | 0.496 | 0.517 | 0.472 | 0.458 | 0.359 | 0.176 | 0.137 | 0.132 | 0.115 | 0.102 |
| NCI-H1395 | 0.433 | 0.438 | 0.455 | 0.453 | 0.428 | 1.03 | 0.811 | 1.09 | 0.871 | 0.861 | 0.459 | 0.422 | 0.43 | – | 0.448 | 1.04 | 0.843 | 0.968 | – | 1.04 |
| NCI-H1793 | 0.378 | 0.307 | 0.378 | 0.32 | 0.227 | 0.888 | 0.54 | 0.583 | 0.77 | 0.655 | 0.942 | 0.655 | 0.834 | 1.09 | 0.761 | 0.364 | 0.433 | 0.461 | 0.411 | 0.291 |
| NCI-H2009 | 0.487 | 0.599 | 0.498 | 0.474 | 0.493 | 0.944 | 1.04 | 0.889 | 0.772 | 0.721 | 0.734 | 0.576 | 0.724 | 0.64 | 0.706 | 0.278 | 0.208 | 0.264 | 0.262 | 0.296 |
